Experimental findings from ChEMBL document CHEMBL1126816, “Inhibition of human leukocyte elastase. 6. Inhibition by 6-substituted penicillin esters” (Bioorg Med Chem Lett, 1993) are described below.

Bounds are passed on as bounds.

The target of test [1] is T1, Neutrophil elastase (Homo sapiens, UniProt P08246).
T1 sequence (P08246 whole entry): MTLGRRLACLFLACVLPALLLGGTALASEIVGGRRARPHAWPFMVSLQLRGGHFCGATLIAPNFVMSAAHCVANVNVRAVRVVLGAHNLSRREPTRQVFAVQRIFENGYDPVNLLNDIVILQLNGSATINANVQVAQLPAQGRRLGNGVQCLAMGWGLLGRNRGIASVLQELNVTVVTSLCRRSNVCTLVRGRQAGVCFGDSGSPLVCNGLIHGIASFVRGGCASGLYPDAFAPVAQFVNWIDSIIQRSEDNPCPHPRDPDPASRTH
The experiment in a line: Inhibitory concentration required against Human Leukocyte Elastase (HLE) for 50% reduction in rate of hydrolysis of (suc-Ala-Ala-Pro-Ala-p-NA) peptide.

Test [2] concerns the target T1, Neutrophil elastase. Nature of the test: Inhibitory concentration required against Human Leukocyte Elastase (HLE) for 50% reduction in rate of hydrolysis of (suc-Ala-Ala-Pro-Ala-p-NA) peptide;compound was inactive.

On Neutrophil elastase [1], `C[C@H](OC(=O)NCc1ccccc1)[C@H]1C(=O)N2[C@@H](C(=O)OCc3ccccc3)C(C)(C)S(=O)(=O)[C@H]12` yielded an IC50 of 7 µM. The same measure, in the same setting: for `C[C@@H](OC(=O)NCc1ccccc1)[C@@H]1C(=O)N2[C@@H](C(=O)OCc3ccccc3)C(C)(C)S(=O)(=O)[C@H]12` the value was 10 µM; for `C[C@@H](OC(=O)NCc1ccccc1)[C@H]1C(=O)N2[C@@H](C(=O)OCc3ccccc3)C(C)(C)S(=O)(=O)[C@H]12`, 0.7 µM.

Turning to `C[C@H](OC(=O)NCc1ccccc1)[C@@H]1C(=O)N2[C@@H](C(=O)OCc3ccccc3)C(C)(C)S(=O)(=O)[C@H]12`, the half-inhibitory concentration (IC50) on Neutrophil elastase [1] was found to be 0.3 µM. Take `CC1(C)[C@H](C(=O)OCc2ccccc2)N2C(=O)[C@H](Cl)[C@H]2S1(=O)=O`: inhibition at Neutrophil elastase [1] was half-maximal at 14 µM (IC50). On the same count and under the same terms, for `CO[C@H]1C(=O)N2[C@@H](C(=O)OC(C)(C)C)C(C)(C)S(=O)(=O)[C@H]12` the value was more than 20 µM; for `CC1(C)[C@H](C(=O)OCC(F)(F)F)N2C(=O)[C@H](NC(=O)C(F)(F)F)[C@H]2S1(=O)=O`, 0.1 µM. As for `CC1(C)S[C@@H]2[C@@H](NC(=O)C(F)(F)F)C(=O)N2[C@H]1C(=O)OCc1ccccc1`, the IC50 against Neutrophil elastase [1] amounted to 4 µM.

For `CC(=O)O[C@H]1C(=O)N2[C@@H](C(=O)OCc3ccccc3)C(C)(C)S(=O)(=O)[C@H]12`, the IC50 against Neutrophil elastase [1] was 0.2 µM. Regarding `CC(=O)O[C@H]1C(=O)N2[C@@H](C(=O)OCc3ccccc3)C(C)(C)[S+]([O-])[C@@H]12` (stereo not given in full), the midpoint of inhibition on Neutrophil elastase [1], the IC50, lay at 5 µM. With `CC1(C)[C@H](C(=O)OCc2ccccc2)N2C(=O)[C@H](OC(=O)Cc3ccccc3)[C@H]2S1(=O)=O`, on Neutrophil elastase [1], 4 µM corresponded to half-maximal inhibition (IC50). The IC50 values of the last two compounds are within 1.5-fold of each other. Still for that read-out and setting: to `CC1(C)[C@H](C(=O)OCC(F)(F)F)N2C(=O)[C@@H](NC(=O)C(F)(F)F)[C@H]2S1(=O)=O` belongs 3 µM. As for `CC1(C)[C@H](C(=O)OCc2ccccc2)N2C(=O)[C@H](OCc3ccccc3)[C@H]2S1(=O)=O`, inhibition against Neutrophil elastase [1] was half-maximal at 4 µM (IC50). On the same count and under the same terms, for `COC(=O)[C@@H]1N2C(=O)[C@H](OC)[C@H]2S(=O)(=O)C1(C)C` the value was 20 µM. Compound `CCO[C@H]1C(=O)N2[C@@H](C(=O)OCc3ccccc3)C(C)(C)S(=O)(=O)[C@H]12` had an IC50 on Neutrophil elastase [1] of 2 µM. This IC50 lies about 10-fold lower than the previous one.

Regarding `Cc1ccc(S(=O)(=O)O[C@H]2C(=O)N3[C@@H](C(=O)OCc4ccccc4)C(C)(C)S(=O)(=O)[C@H]23)cc1`, the IC50 on Neutrophil elastase [1] came out at 0.05 µM.

At Neutrophil elastase [1], `CO[C@@]1(NC(=O)C(F)(F)F)C(=O)N2[C@@H](C(=O)OCc3ccccc3)C(C)(C)S(=O)(=O)[C@@H]21` returned an IC50 of 9 µM. Same read-out and setting: to `CN(C(=O)C(F)(F)F)[C@@H]1C(=O)N2[C@@H](C(=O)OCc3ccccc3)C(C)(C)S(=O)(=O)[C@H]12` belongs 0.7 µM; to `CC1(C)[C@H](C(=O)OCc2ccccc2)N2C(=O)[C@H](NC(=O)C(F)(F)F)[C@H]2S1(=O)=O`, 0.15 µM. The compound `CC1(C)[C@H](C(=O)OCc2ccccc2)N2C(=O)[C@@H](NC(=O)C(F)(F)F)[C@H]2S1(=O)=O` yielded an IC50 against Neutrophil elastase [2] of 2 µM.

`CC1(C)S[C@@H]2[C@H](NC(=O)C(F)(F)F)C(=O)N2[C@H]1C(=O)OCc1ccccc1` returned an IC50 against Neutrophil elastase [1] of 12 µM. Consider `CC1(C)[C@H](C(=O)OCc2ccccc2)N2C(=O)[C@@](C)(NC(=O)C(F)(F)F)[C@H]2S1(=O)=O`, for which the IC50 on Neutrophil elastase [1] was more than 20 µM.

Compound `CC1(C)[C@H](C(=O)OCc2ccccc2)N2C(=O)[C@@H](COC(=O)NCc3ccccc3)[C@H]2S1(=O)=O` registered an IC50 against Neutrophil elastase [1] of 0.7 µM. Same read-out and setting: for `CC1(C)[C@H](C(=O)OCc2ccccc2)N2C(=O)[C@H](OC(=O)COc3ccccc3)[C@H]2S1(=O)=O` the value was 5 µM; for `CC1(C)[C@H](C(=O)OCc2ccccc2)N2C(=O)[C@H](COC(=O)NCc3ccccc3)[C@H]2S1(=O)=O`, 4 µM. The compound `CC(=O)O[C@H]1C(=O)N2[C@@H]1SC(C)(C)[C@@H]2C(=O)OCc1ccccc1` displayed an IC50 against Neutrophil elastase [1] of 10 µM.

`CO[C@H]1C(=O)N2[C@@H](C(=O)OCC(F)(F)F)C(C)(C)S(=O)(=O)[C@H]12` displayed an IC50 against Neutrophil elastase [1] of 4 µM. Regarding `CN(C(=O)C(F)(F)F)[C@H]1C(=O)N2[C@@H](C(=O)OCc3ccccc3)C(C)(C)S(=O)(=O)[C@H]12`, half-maximal inhibition against Neutrophil elastase [1] (IC50) was put at 0.2 µM. In turn, `CO[C@]1(NC(=O)C(F)(F)F)C(=O)N2[C@@H](C(=O)OCc3ccccc3)C(C)(C)S(=O)(=O)[C@@H]21` returned an IC50 at Neutrophil elastase [1] of 0.8 µM. With `CC[C@@]1(NC(=O)C(F)(F)F)C(=O)N2[C@@H](C(=O)OCc3ccccc3)C(C)(C)S(=O)(=O)[C@@H]21`, on Neutrophil elastase [1], half-maximal inhibition (IC50) required 3 µM. Compared with the last compound, the IC50 is about 3.8-fold higher.

As a reminder, the IC50 is the point on the concentration scale where inhibition reaches its midpoint. Higher therefore signals weaker potency.
